Results taken from patent US7951530B2, “Cyclic maltosylmaltose, cyclic maltosymaltose-forming enzyme, their preparation and uses” (Kabushiki Kaisha Hayashibara Seibutsu Kagaku Kenkyujo, priority 2003, dated 2011).

Tested on: rat cecal contents
Experiment: Test for fermentability by rat cecal contents
Type: in vitro ADME, Wister-rat
Experimental: According to the method of Oku et al., described in Journal of Nutritional Science and Vitaminology, vol. […] The cecal contents was collected under an anaerobic condition by killing a Wister-rat under anesthesia and suspended into 4-folds by volume of 0.1 M sodium bicarbonate aqueous solution, and then used for the test. CMM was added to the cecal contents by about 7% (w/w) of the weight of the cecal contents. The amounts of CMM at just after mixing and after 12 hours were determined by gas-chromatography. […] About 92% of CMM was not fermented and remained.

SMILES: OC[C@H]1O[C@@H]2OC[C@H]3O[C@H](O[C@H]4[C@H](O)[C@@H](O)[C@@H](OC[C@H]5O[C@H](O[C@H]1[C@H](O)[C@H]2O)[C@H](O)[C@@H](O)[C@@H]5O)O[C@@H]4CO)[C@H](O)[C@@H](O)[C@@H]3O [CMM, cyclo{>6)-α-D-glucopyranosyl-(1>4)-α-D-glucopyranosyl-(1>6)-α-D-glucopyranosyl-(1>4)-α-D-glucopyranosyl-(1>}]
- CMM not fermented and remained (after 12 hours): About 92%
- concentration of CMM in the cecal contents (after 12 hours): 63.0 mg/g-cecal contents
- concentration of CMM in the cecal contents (just after adding): 68.5 mg/g-cecal contents
